Assay results published in US20050020588A1, “Cysteine protease inhibitors” (priority 1999, published 2005).

How the values were obtained:
Assay type in all cases: biochemical
Mammalian Cathepsin S = Mammalian Cathepsin S (Homo sapiens, UniProt P25774); test: Ki competitive inhibition, mammalian cathepsin S; settings: Table 1, first line of each CAP-P2 block; read-out: Ki competitive inhibition measurements vs Mammalian Cathepsin S
Description: Cathepsin S (Mammalian, murine and rat)
Assays were performed in 100 mM sodium phosphate, 100 mM NaCl, pH 6.5 (buffer) in white 384 well plates (Coming Costar). Eight inhibitors were assayed per plate.
Inhibitor dilutions were performed on a 96 well V-bottomed polypropylene plate (Corning Costar). 100 μl of buffer was placed in wells 2-5 and 7-12 of rows A, B, C and D. Sufficient of each inhibitor at 10 mM in DMSO was placed into wells A1-D1 and A6-D6 to give the desired final concentration when the volume in the well was made up to 200 μl with buffer. Column 1 was made up to 200 μl with buffer, mixed by aspirating and dispensing 100 μl in the well, and 100 μl transferred to column 2. The pipette tips were changed and the mixing and transferral repeated to column 5. This process was repeated for columns 6-10.
Substrate dilutions were performed on a 96 deep well polypropylene plate (Beckman Coulter). 280 μl of buffer was placed in wells B-H of columns 1 and 2.70 μl of 10 mM boc-Val-Leu-Lys-AMC was placed in A1 and A2. 2×250 μl of buffer was added to wells A1 and A2, mixed by aspirating and dispensing 280 μl in the well, and 280 μl transferred to row B. The pipette tips were changed and the process repeated down the plate to row H.
Column 1 of the substrate dilution plate was distributed at 10 μl per well into alternate rows beginning at row A. Column 2 was distributed to alternate rows beginning at row B. Row A of the inhibitor dilution plate was distributed at 10 μl per well to alternate rows and columns starting at A1. Row B was distributed to alternate rows and columns starting at A2. Row C was distributed to alternate rows and columns starting at B1 and row D was distributed to alternate rows and columns starting at B2. The assay was started by the addition of 30 μl per well of 20 nM cathepsin S in buffer containing 10 mM 2-mercaptoethanol.
(§1) Data were saved as text files and imported into Excel. The initial rates were determined by linear regression and then fitted to the competitive inhibition equation using SigmaPlot.

Mammalian Cathepsin L = Mammalian Cathepsin L (Homo sapiens, UniProt P07711); test: Ki competitive inhibition, cathepsin L; settings: Table 1, second line of each CAP-P2 block; read-out: Ki competitive inhibition measurements vs Mammalian Cathepsin L
Description: as §1
(§2) Assays were performed essentially as above. For cathepsin L, the buffer used was 100 mM sodium acetate, 1 mM EDTA, pH 5.5 and the substrate was D-Val-Leu-Lys-AMC with a highest concentration of 100 μM. For cathepsin K, the buffer used was 100 mM MES/Tris, 1 mM EDTA, pH 7.0 and the substrate was D-Ala-Leu-Lys-AMC with a highest concentration of 250 μM.

Mammalian Cathepsin K = target: T1, Mammalian Cathepsin K (Homo sapiens, UniProt P43235); test: Ki competitive inhibition, cathepsin K; settings: Table 1, third line of each CAP-P2 block; read-out: Ki competitive inhibition measurements vs Mammalian Cathepsin K
T1 sequence (P43235 115-329): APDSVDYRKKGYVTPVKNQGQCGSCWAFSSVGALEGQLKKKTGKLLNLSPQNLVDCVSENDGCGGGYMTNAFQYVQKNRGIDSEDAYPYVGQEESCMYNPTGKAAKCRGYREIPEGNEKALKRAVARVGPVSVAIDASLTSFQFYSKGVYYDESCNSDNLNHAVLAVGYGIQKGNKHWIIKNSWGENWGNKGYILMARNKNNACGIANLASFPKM
Description: as §2
Convenient assays for cathepsin K arere carried out using human recombinant enzyme. Standard assay conditions for the determination of kinetic constants used a fluorogenic peptide substrate, typically H-D-Ala-Leu-Lys-AMC, and were determined in either 100 mM Mes/Tris, pH 7.0 containing 1 mM EDTA and 10 mM 2-mercaptoethanol or 100 mM Na acetate, pH 5.5 containing 5 mM EDTA and 20 mM cysteine. The enzyme concentration used was 5 nM. The stock substrate solution was prepared at 10 mM in DMSO. Screens were carried out at a fixed substrate concentration of 60 μM and detailed kinetic studies with doubling dilutions of substrate from 250 μM. The total DMSO concentration in the assay was kept below 3%. All assays were conducted at ambient temperature. Product fluorescence (excitation at 390 nm, emission at 460 nm) was monitored with a Labsystems Fluoroskan Ascent fluorescent plate reader. Product progress curves were generated over 15 minutes following generation of AMC product.
Potential inhibitors are screened using the above assay with variable concentrations of test compound. Reactions were initiated by addition of enzyme to buffered solutions of substrate and inhibitor. Ki values were calculated according to equation 1 [formula] where ν0 is the velocity of the reaction, V is the maximal velocity, S is the concentration of substrate with Michaelis constant of KM, and I is the concentration of inhibitor. Determination of Falcipain 2 Proteolytic Catalytic Activity

Chain of Mammalian Cathepsin S (P25774 115-331): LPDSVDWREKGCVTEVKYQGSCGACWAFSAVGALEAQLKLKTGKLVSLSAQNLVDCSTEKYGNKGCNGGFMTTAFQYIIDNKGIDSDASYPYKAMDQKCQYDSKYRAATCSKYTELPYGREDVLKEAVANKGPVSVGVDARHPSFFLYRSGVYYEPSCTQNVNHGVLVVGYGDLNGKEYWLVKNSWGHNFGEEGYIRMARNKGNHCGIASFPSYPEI
Chain of Mammalian Cathepsin L (P07711 114-333): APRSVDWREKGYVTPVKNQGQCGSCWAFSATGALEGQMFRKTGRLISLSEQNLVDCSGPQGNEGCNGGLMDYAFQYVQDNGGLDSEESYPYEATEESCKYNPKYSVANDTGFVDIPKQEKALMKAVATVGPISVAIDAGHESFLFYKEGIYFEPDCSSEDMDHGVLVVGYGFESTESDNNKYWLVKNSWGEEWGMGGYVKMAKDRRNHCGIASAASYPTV

| SMILES | Ki (Mammalian Cathepsin S) [µM] | Ki (Mammalian Cathepsin L) [µM] | Ki (Mammalian Cathepsin K) [µM] |
| --- | --- | --- | --- |
| CC(C)C[C@H](NC(=O)c1ccc(O)cc1)C(=O)N[C@H]1C(=O)CO[C@H]1C [CAP1-L-Leu/drawing 70] | 0.23 | 2.7 | 0.41 |
| CC(C)C[C@H](NC(=O)c1ccc(O)cc1)C(=O)N[C@@H]1COCC1=O [CAP1-L-Leu/drawing 73] | 0.27 | 0.39 | 0.07 |
| CCCC[C@H](NC(=O)c1ccc(O)cc1)C(=O)N[C@@H]1C(=O)CO[C@H]1C [CAP1-L-Nle/drawing 71] | 0.4 | 19.3 | 8.9 |
| CCCC[C@H](NC(=O)c1ccc(O)cc1)C(=O)N[C@H]1COCC1=O [CAP1-L-Nle/drawing 72] | 0.56 | 3.3 | 1.4 |
| CCCC[C@H](NC(=O)c1ccc(O)cc1)C(=O)N[C@@H]1COCC1=O [CAP1-L-Nle/drawing 73] | 0.49 | 4.4 | 1.15 |
| C[C@@H]1OCC(=O)[C@@H]1NC(=O)[C@H](Cc1ccc(O)cc1)NC(=O)c1ccc(O)cc1 [CAP1-L-Tyr/drawing 70] | 1 | 1.8 | > 100 |
| O=C(NC(Cc1ccc(O)cc1)C(=O)NC1COCC1=O)c1ccc(O)cc1 [CAP1-L-Tyr/drawing 72] | 0.86 | 0.33 | 27.1 |
| CC(C)CC[C@H](NC(=O)c1ccc(O)cc1)C(=O)N[C@H]1C(=O)CO[C@H]1C [CAP1-L-hLeu/drawing 70] | 0.3 | 29.8 | 24.1 |
| C[C@H]1OCC(=O)[C@H]1NC(=O)[C@H](CC(C)(C)C)NC(=O)c1ccc(O)cc1 [CAP1-L-tBu-Ala/drawing 69] | 0.25 | 3.9 | 0.39 |
| C[C@H]1OCC(=O)[C@H]1NC(=O)[C@H](Cc1ccc(O)cc1)NC(=O)Cc1ccccc1 [CAP2-L-Tyr/drawing 69] | 3.2 | 0.22 | > 100 |
| CCCC[C@H](NC(=O)c1ccccc1)C(=O)N[C@H]1COCC1=O [CAP3-L-Nle/drawing 72] | 0.76 | 2.8 | 5.8 |
| C[C@H]1OCC(=O)[C@H]1NC(=O)[C@H](Cc1ccc(O)cc1)NC(=O)c1ccccc1 [CAP3-L-Tyr/drawing 69] | 1.1 | 0.17 | > 100 |
| C[C@@H]1OCC(=O)[C@@H]1NC(=O)[C@H](Cc1ccc(O)cc1)NC(=O)c1ccccc1 [CAP3-L-Tyr/drawing 70] | 0.17 | 1.4 | > 100 |
| O=C(N[C@@H](Cc1ccc(O)cc1)C(=O)N[C@H]1COCC1=O)c1ccccc1 [CAP3-L-Tyr/drawing 72] | 1.6 | 0.25 | > 100 |
| CC(C)C[C@H](NC(=O)c1cccs1)C(=O)N[C@@H]1C(=O)CO[C@@H]1C [CAP5-L-Leu/drawing 69] | 0.48 | 1.48 | 0.29 |
| C[C@H]1OCC(=O)[C@H]1NC(=O)[C@H](Cc1ccc(O)cc1)NC(=O)c1cccs1 [CAP5-L-Tyr/drawing 69] | 1.6 | 0.5 | > 100 |
| C[C@H]1OCC(=O)[C@H]1NC(=O)[C@H](CC(C)(C)C)NC(=O)c1cccs1 [CAP5-L-tBu-Ala/drawing 69] | 0.47 | 24.6 | 0.65 |
| Cc1cc(C(=O)N[C@@H](CC(C)C)C(=O)N[C@H]2C(=O)CO[C@H]2C)oc1C [CAP6-L-Leu/drawing 70] | 0.61 | 1.1 | 0.75 |
| Cc1cc(C(=O)N[C@@H](CC(C)C)C(=O)N[C@@H]2C(=O)CO[C@H]2C)oc1C [CAP6-L-Leu/drawing 71] | 0.68 | 0.67 | 2.75 |
| Cc1cc(C(=O)N[C@@H](CC(C)C)C(=O)N[C@@H]2COCC2=O)oc1C [CAP6-L-Leu/drawing 73] | 0.48 | 0.19 | 0.33 |
| Cc1cc(C(=O)N[C@@H](Cc2ccc(O)cc2)C(=O)N[C@@H]2C(=O)CO[C@@H]2C)oc1C [CAP6-L-Tyr/drawing 69] | 2 | 0.055 | > 100 |
| Cc1cc(C(=O)N[C@@H](Cc2ccc(O)cc2)C(=O)N[C@H]2C(=O)CO[C@H]2C)oc1C [CAP6-L-Tyr/drawing 70] | 0.24 | 0.67 | > 100 |
| Cc1cc(C(=O)N[C@@H](Cc2ccc(O)cc2)C(=O)N[C@@H]2COCC2=O)oc1C [CAP6-L-Tyr/drawing 73] | 2.3 | 0.14 | > 100 |
| CC(C)C[C@H](NC(=O)c1ccc(N(C)C)cc1)C(=O)N[C@H]1C(=O)CO[C@H]1C [CAP7-L-Leu/drawing 70] | 4.2 | 6.8 | 0.17 |
| CC(C)C[C@H](NC(=O)c1ccc(N(C)C)cc1)C(=O)N[C@H]1COCC1=O [CAP7-L-Leu/drawing 72] | 3.1 | 0.69 | 0.018 |

Next, values leading:

| Ki (Mammalian Cathepsin S) [µM] | Ki (Mammalian Cathepsin L) [µM] | Ki (Mammalian Cathepsin K) [µM] | SMILES |
| --- | --- | --- | --- |
| 3.9 | 1.1 | 0.023 | CC(C)C[C@H](NC(=O)c1ccc(N(C)C)cc1)C(=O)N[C@@H]1COCC1=O [CAP7-L-Leu/drawing 73] |
| 6.8 | 46.7 | 3.1 | CCCCC(NC(=O)c1ccc(N(C)C)cc1)C(=O)NC1C(=O)COC1C [CAP7-L-Nle/drawing 70] |
| 6.2 | 49.9 | 1.3 | CCCC[C@H](NC(=O)c1ccc(N(C)C)cc1)C(=O)N[C@@H]1C(=O)CO[C@H]1C [CAP7-L-Nle/drawing 71] |
| 2.7 | 13.1 | 0.04 | C[C@H]1OCC(=O)[C@H]1NC(=O)[C@H](CC(C)(C)C)NC(=O)c1ccc(N(C)C)cc1 [CAP7-L-tBu-Ala/drawing 69] |
| 1.5 | 54.4 | 13.2 | CCCC[C@H](NC(=O)c1ccoc1)C(=O)N[C@@H]1C(=O)CO[C@@H]1C [CAP8-L-Nle/drawing 69] |
| 1 | > 100 | > 100 | CCCC[C@H](NC(=O)c1ccoc1)C(=O)N[C@H]1C(=O)CO[C@H]1C [CAP8-L-Nle/drawing 70] |
| 0.97 | 38.9 | 16 | CC(C)CC[C@H](NC(=O)c1ccoc1)C(=O)N[C@@H]1C(=O)CO[C@@H]1C [CAP8-L-hLeu/drawing 69] |
| 0.45 | > 100 | > 100 | CC(C)CC[C@H](NC(=O)c1ccoc1)C(=O)N[C@H]1C(=O)CO[C@H]1C [CAP8-L-hLeu/drawing 70] |
| 0.37 | > 100 | > 100 | CC(C)CC[C@H](NC(=O)c1ccoc1)C(=O)N[C@@H]1C(=O)CO[C@H]1C [CAP8-L-hLeu/drawing 71] |
| 0.44 | 61.2 | 8.7 | CC(C)CC[C@H](NC(=O)c1ccoc1)C(=O)N[C@@H]1COCC1=O [CAP8-L-hLeu/drawing 73] |
| 0.2 | > 100 | 19.9 | C[C@@H]1OCC(=O)[C@@H]1NC(=O)[C@H](CC(C)(C)C)NC(=O)c1ccoc1 [CAP8-L-tBu-Ala/drawing 70] |
